What was measured:
[1] = molecular target: T1, human leukocyte elastase (HLE) (Homo sapiens, UniProt P08246); assay: HLE inhibitory activity (synthetic substrate, pNA release, absorbance 405 nm); type: biochemical; conditions: pH 8.6; HLE 5.63 nM, substrate 0.2625 mM; 37°C; read-out: IC₅₀ value HLE
T1 construct: the mixed solution was subjected to density gradient centrifugation, thereby obtaining neutrophiles; from tissue; host or cells: neutrophils from human vein blood (buffy coat)
T1 sequence (P08246 30-247 limits assumed): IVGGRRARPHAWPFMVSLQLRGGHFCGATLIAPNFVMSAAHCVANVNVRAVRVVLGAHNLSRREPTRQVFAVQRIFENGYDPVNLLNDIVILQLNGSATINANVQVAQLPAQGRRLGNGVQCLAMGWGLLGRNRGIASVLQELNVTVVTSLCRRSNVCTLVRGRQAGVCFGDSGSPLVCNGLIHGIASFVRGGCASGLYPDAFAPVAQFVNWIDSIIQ
Description: (§1) Activities of the Benzoxazine derivatives of the present invention against human leukocyte elastase (HLE), human sputum elastase (HSE), human cathepsin G (HCG), bovine pancreatic α-chmotrypsin (CYT) and bovine pancreatic trypsin (TRY) were measured by the following method.
A buffy coat was obtained by subjecting human vein blood to centrifugation. To the buffy coat was added distilled water to make a hypotonic solution, thereby bursting erythrocytes. To the residual blood cell component was added a 33.4% of Conrey 400 solution/9% Ficoll solution (the ratio of the former solution to the latter solution is 10:24), and the mixed solution was subjected to density gradient centrifugation, thereby obtaining neutrophiles. The neutrophile fraction was washed with Hanks' buffer for three times and then cells were recovered and cryopreserved at -80°C until use. The cryopreserved-cells were thawed with warm water at 37°C and suspended in a 9-fold volume of lysis buffer containing 0.1M Tris-HCl (pH7.5), 1M MgCl₂ and 0.1% Brij 35. The suspended cells are destroyed by means of polotoron with ice-cooling. The cell suspension was subjected to centrifugation at 100,000 x g for 1 hour. After removing precipitates, 2-fold volume of a Tris-HCl buffer containing 5 mM Tris-HCl(pH 7.5), 1M NaCl and 1.1% Brij 35 was added to the supernatant, thereby obtaining a crude solution of an enzyme extract. The crude solution was subjected to aprotinine affinity column and extracted with an elution buffer containing […] of glycine-HCl (pH 3.3), 1M NaCl and 0.1% Brij 35, thereby obtaining an active fraction. The obtained active fraction was further subjected to MONO S-ion-exchange chromatography and eluted with 2M NaCl linear gradient. The obtained fraction was dialyzed against 25 mM Tris-HCl (pH8.6) and lyophilized, thereby obtained an enzyme sample.
(§2) A test compound was dissolved in DMSO (for fluorometry) and prepared various concentration of the solution. To each concentration was added 2-fold volume of 0.2M Tris-HCl (pH8.6), thereby obtaining a test solution. Synthetic substrate (Funakoshi, L-1335) was dissolved in DMSO and 2-volume of 0.2M Tris-HCl (pH8.6) was added thereto, thereby obtaining a substrate solution. The reaction was performed using a microplate having 96 wells (Nunk). Six-time reactions were repeated for each concentration. One handred and forty µl of an enzyme solution containing 0.2M Tris-HCl (pH8.6), 30 µl of a test solution and 30 µl of a substrate solution per well of the microplate were respectively pre-incubated at 37°C for 10 minutes. After completion of the incubation, the enzyme solution was mixed with the test sample and incubated for 10 minutes and then the substrate solution was added to perform an enzyme reaction. The absorbance of released P-nitroanilide (PNA) was measured at the wave length of 405 nm by means of a microplate reader (MTP-100; CORONA), thereby determining the substrate decomposition. The rate of the substrate decomposition was shown as an average value of 6 repeated reactions. The inhibitory concentration of a test compound relative to the amount of the substrate decomposition in the reaction mixture without a test compound was regarded as an IC₅₀ value. The final concentration of HLE and a synthesized substrate in the reaction mixture were 5.63 nM and 0.2625 mM, respectively.

[2] = molecular target: T2, human sputum elastase (HSE) (Homo sapiens, UniProt P08246); assay: HSE inhibitory activity (synthetic substrate, pNA release); type: biochemical; conditions: pH 7.0; HSE 10 nM, substrate 0.25 mM; read-out: IC₅₀ value HSE
T2 construct: human sputum elastase (HSE); purchased Sigma Inc
T2 sequence (P08246 30-267): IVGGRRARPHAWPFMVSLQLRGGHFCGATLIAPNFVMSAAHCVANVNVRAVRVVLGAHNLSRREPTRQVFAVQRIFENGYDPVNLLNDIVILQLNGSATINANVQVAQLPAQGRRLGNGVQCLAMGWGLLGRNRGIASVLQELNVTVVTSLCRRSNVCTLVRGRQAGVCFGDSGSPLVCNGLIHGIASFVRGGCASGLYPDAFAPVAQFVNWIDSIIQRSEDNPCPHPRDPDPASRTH
Description: as §1
as §2, with “The rate of the substrate decomposition was shown as an average value of 6 repeated reactions. The inhibitory concentration of a test compound relative to the amount of the substrate decomposition in the reaction mixture without a test compound was regarded as an IC₅₀ value. The final concentration of HLE and a synthesized substrate in the reaction mixture were 5.63 nM and 0.2625 mM, respectively.” left out

human cathepsin G (HCG) = molecular target: T3, human cathepsin G (HCG) (Homo sapiens, UniProt P08311); assay: HCG inhibitory activity (synthetic substrate, pNA release); type: biochemical; conditions: pH 7.5; HCG 50 nM, substrate 0.5 mM; read-out: IC₅₀ value HCG
T3 construct: purchased Cosmo Bio Inc
T3 sequence (P08311 21-244): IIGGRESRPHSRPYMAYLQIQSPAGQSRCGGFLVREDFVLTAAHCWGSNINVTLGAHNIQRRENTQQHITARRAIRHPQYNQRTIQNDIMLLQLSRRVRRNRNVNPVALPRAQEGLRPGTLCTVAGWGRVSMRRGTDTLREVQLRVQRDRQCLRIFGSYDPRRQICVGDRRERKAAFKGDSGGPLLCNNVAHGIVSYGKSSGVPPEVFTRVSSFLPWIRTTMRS
Description: as §1, §2
a) Enzyme obtaining route HCG was obtained from Cosmo Bio Inc.
The same method as in the measurement of HLE inhibitory activity was used except that a buffer solution (pH 7.5) was used. The final concentration of HCG and synthetic substrate (Funakoshi, L-1010) in a reaction mixture were 50 nM and 0.5 mM, respectively.

[3] = molecular target: T4, bovine pancreatic trypsin (TRY) (Bos taurus, UniProt P00760); assay: TRY inhibitory activity (synthetic substrate, pNA release); type: biochemical; conditions: pH 7.5; TRY 25 nM, substrate Z-Arg-pNA 1.0 mM; read-out: IC₅₀ value TRY
T4 construct: bovine pancreatic trypsin (TRY); purchased Sigma Inc
T4 sequence (P00760 24-246): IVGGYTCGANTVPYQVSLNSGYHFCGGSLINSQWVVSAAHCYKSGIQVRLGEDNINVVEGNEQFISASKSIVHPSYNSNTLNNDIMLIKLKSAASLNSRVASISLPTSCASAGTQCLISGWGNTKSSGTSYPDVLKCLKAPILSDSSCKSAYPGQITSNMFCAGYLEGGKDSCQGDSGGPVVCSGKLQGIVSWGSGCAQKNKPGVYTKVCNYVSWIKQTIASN
Description: as §1
as §2, with “The rate of the substrate decomposition was shown as an average value of 6 repeated reactions. The inhibitory concentration of a test compound relative to the amount of the substrate decomposition in the reaction mixture without a test compound was regarded as an IC₅₀ value. The final concentration of HLE and a synthesized substrate in the reaction mixture were 5.63 nM and 0.2625 mM, respectively.” left out

[4] = molecular target: T5, bovine pancreatic α-chmotrypsin (CYT) (Bos taurus, UniProt P00766); assay: CYT inhibitory activity (synthetic substrate, pNA release); type: biochemical; conditions: pH 8.0; CYT 3.4 nM, substrate 0.273 mM; read-out: IC₅₀ value CYT
T5 construct: bovine pancreatic α-chmotrypsin (CYT); purchased Sigma Co., Ltd
Description: as §1, §2
a) Enzyme obtaining route CYT was obtained from Sigma Co., Ltd.
Substantially the same method as used in the measurement of the HLE inhibitory activity was used except that a buffer solution (pH 8.0) was used. The final concentration of CYT and synthetic substrate (Funakoshi, L-1010) in a reaction mixture were 3.4 nM and 0.273 mM, respectively.

[5] = system: neutrophiles from the human peripheral blood; assay: Human neutrophile chemotaxis suppressing activity (fMLP, chemotaxis chamber); type: cell-based; conditions: 10-⁷M fMLP, one hour at 37°C; for Chemotaxis: experiment without compound regarded as 100
Description: The neutrophile fraction (60% percoal fraction having neutrophile purity of 90% or more) was taken from the human peripheral blood by means of percoal density gradient centrifugation at 2300 rpm for 20 minutes.
An intercell having a pore diameter of 5 µm, containing 8 x 10⁵ of neutrophiles and the compound of the present invention adjusted in various concentrations was placed in each well of a chemotaxis chamber (KURABO), in which has been added 1300 µl of a medium containing 10-⁷M of formylmethionyl-leucyl-phenylalanine (fMLP), which is a neutrophile chemotaxis factor. After incubating for one hour at 37°C in an incubator containing 5% carbon dioxide, the number of cells migrating from the upper side of the intercell membrane into the lower side of the membrane in the chamber was counted by the following method. That is, the lower side surface of the intercell membrane was washed with PBS for 4 times and fixed with methanol and dyed with hematoxylin-eosin solution. The membrane was removed from the intercell and placed on a slide, dried in air, followed by sealing with Canada balsam. The cell number was microscopically counted in 5 visual fields. Taking average number of the five fields, the average was employed as the number of migrating cells. The value subtracting the migrating cell number in a control experiment containing no fMLP from the cell number in an experiment containing no the compound of the present invention was regarded as 100, the chemotaxis suppressing activity was determined as the following formula: Neutrophilic chemotaxis suppressing activity (%) [formula] = 100 - A/B x 100 [formula] = 100 - (C - D)/(E-D) x 100 [formula] Where: • A: chemotaxis measured in the experiment containing the compound of the present invention; • B: chemotaxis measured in the experiment not containing the compound of the present invention • C: the number of migrating cells measured in the experiment containing both the compound of the present invention and fMLP. • D: the number of migrating cells in the experiment containing neither the compound of the present invention nor fMLP. • E: the number of migrating cells in the experiment containing only fMLP.

Row | Compound | IC50 [1] [nM] | IC50 (human cathepsin G (HCG)) [nM] | IC50 [4] [nM] | further results
1 | Cc1cccc2nc([C@@H](NC(=O)CN(c3ccccc3)c3ccccc3)C(C)C)oc(=O)c12 [Compound 7, 2-{1(S)-[(N,N-diphenyl-glycyl)amino]-2-methylpropyl}-5-methyl-4H-3,1-benzoxazin-4-one] | 790 |  |  | 
2 | Cc1cccc2nc([C@@H](NC(=O)COC(c3ccccn3)c3ccccn3)C(C)C)oc(=O)c12 [Compound 4] | 550 |  |  | 
3 | Cc1cccc2nc([C@@H](NC(=O)OCC34CC5CC(CC(C5)C3)C4)C(C)C)oc(=O)c12 [Compound 6, 2-[1(S)-[[(1-adamantyl)methoxy-carbonyl]amino]-2-methylpropyl]-5-methyl-4H-3,1-benzoxazin-4-one] | 210 | > 25000 | 1550 | IC50 [2]: 260 nM; IC50 [3]: > 12600 nM
4 | Cc1cccc2nc([C@@H](NC(=O)COC(c3ccccc3)c3ccccc3)C(C)C)oc(=O)c12 [Compound 2, 2-[1(S)-[[(diphenylmethoxy)acetyl]amino]-2-methylpropyl]-5-methyl-4H-3,1-benzoxazin-4-one] | 220 | > 27400 | 830 | Chemotaxis ([5]; Concentration 0.125 µM): 70.6; Chemotaxis ([5]; Concentration 1.000 µM): 57.4; activity at 0.125 µM ([5]; Homo sapiens, 1 h, Concentration 0.125 µM): 29.4%; activity at 1 µM ([5]; Homo sapiens, 1 h, Concentration 1.000 µM): 42.6%
5 | Cc1cccc2nc([C@@H](NC(=O)CCC(c3ccccc3)c3ccccc3)C(C)C)oc(=O)c12 [Compound 8, 2-{1(S)-[(4,4-diphenylbutyryl)amino]-2-methylpropyl}-5-methyl-4H-3,1-benzoxazin-4-one] | 400 |  |  | 
6 | Cc1cccc2nc([C@@H](NC(=O)CON=C(c3ccccc3)c3ccccn3)C(C)C)oc(=O)c12 [Compound 9, 5-Methyl-2-[2-methyl-1(S)-[[[[[phenyl(2-pyridyl)methylene]amino]oxy]acetyl]amino]propyl]-4H-3,1-benzoxazin-4-one] | 550 |  |  | 

— patent EP0569598A1, “BENZOXAZINONE DERIVATIVE” (JAPAN TOBACCO INC., priority 1991, dated 1993)
